Where a SMILES comes first, the peptide text is derived from it. Bridges are numbered along the chain shown (N, C = ends). [ ]: non-standard residue; d: D form. Phe(3,4-F2) = N[C@@H](Cc1ccc(F)c(F)c1)C(=O)O; dPhe(4-F) = N[C@H](Cc1ccc(F)cc1)C(=O)O
Tests used:
human EphA2 = human EphA2 (Homo sapiens, UniProt P29317); assay: SPR binding kinetics to EphA2; details: Biacore T200, 25 °C, HBS-EP+ buffer pH 7.4 with 0.1% DMSO, biotinylated human EphA2 on CAP chip (1050 RU), single cycle kinetics, five concentrations, 1:1 model
Sequence of human EphA2 (P29317 24-976): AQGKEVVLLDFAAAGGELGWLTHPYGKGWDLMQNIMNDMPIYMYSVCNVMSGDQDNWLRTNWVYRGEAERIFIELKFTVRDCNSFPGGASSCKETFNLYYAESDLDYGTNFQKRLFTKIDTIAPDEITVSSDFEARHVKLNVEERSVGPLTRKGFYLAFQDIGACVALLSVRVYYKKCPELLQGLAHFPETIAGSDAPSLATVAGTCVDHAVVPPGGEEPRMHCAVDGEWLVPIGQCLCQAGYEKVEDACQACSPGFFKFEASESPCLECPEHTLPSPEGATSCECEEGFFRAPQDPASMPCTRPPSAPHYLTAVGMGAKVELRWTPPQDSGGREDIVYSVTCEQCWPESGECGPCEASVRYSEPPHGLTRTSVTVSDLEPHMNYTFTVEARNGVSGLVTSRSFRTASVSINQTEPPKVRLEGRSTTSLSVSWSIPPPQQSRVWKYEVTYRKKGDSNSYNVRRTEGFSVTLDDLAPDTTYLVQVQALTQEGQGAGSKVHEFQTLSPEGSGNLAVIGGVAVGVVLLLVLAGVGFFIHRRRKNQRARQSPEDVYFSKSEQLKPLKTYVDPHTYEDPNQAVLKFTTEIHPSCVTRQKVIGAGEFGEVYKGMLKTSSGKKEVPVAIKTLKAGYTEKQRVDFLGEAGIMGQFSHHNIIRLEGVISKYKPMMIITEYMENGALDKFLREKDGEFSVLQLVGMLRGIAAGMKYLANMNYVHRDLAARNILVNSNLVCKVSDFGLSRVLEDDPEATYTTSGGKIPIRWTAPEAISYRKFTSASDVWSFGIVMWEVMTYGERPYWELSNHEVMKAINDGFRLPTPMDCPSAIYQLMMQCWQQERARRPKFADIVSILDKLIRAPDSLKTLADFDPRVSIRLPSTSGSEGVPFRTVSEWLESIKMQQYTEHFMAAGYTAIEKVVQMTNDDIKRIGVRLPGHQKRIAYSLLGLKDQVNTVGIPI
Protocol: The cDNAs was detected by QuantStudio™ real-time PCR system (Applied Biosystems), then PCR was recovered by phusion® high-fidelity DNA polymerase and transcribed in vitro to construct a mRNA library rich in BAM complex(or EphA2) binding sequences to prepare for the next round of screening. Starting with the second round of screening, six more negative selections were added before positive selections to remove unwanted beads binders. Finally, the cDNAs recovered in the sixth(or fifth) round was deep sequencing using NovaSeq 6000 system (Ilumina).
General procedures for solid-phase synthesis of selected peptides
In this study, macrocyclic peptides and fluorinated macrocyclic peptides were synthesized by standard Fmoc solid phase peptide synthesis (SPPS). Firstly, a mixture (0.3 mmol Fmoc-Gly-OH and 0.3 mmol HOBT dissolved in 8 mL DMF and 0.5 mL DIC) was prepared, and 0.5 g Rink Amide MBHA resin was added to the mixture, and then reacted under nitrogen protection for 1.5 h. The resin was filtered and washed at least three times with DMF and DCM, and a deprotective agent (DMF solution containing 20% piperidine) was added to remove the Fmoc protective group. Then a new mixture (0.9 mmol Fmoc-AA-OH and 0.9 mmol HOBT dissolved in 10 mL DMF and 1 mL DIC) was prepared and condensation reaction was carried out under nitrogen protection for 1 hour.
By repeating the steps of deprotection and condensation reaction, the desired peptide was finally obtained, and the bromoacetyl group was connected to the N-terminal free α-amino group of the resin peptide. […]
The binding kinetics between the selected peptides and EphA2 were tested by SPR using a Biacore T200 instrument (GE Healthcare) at 25 °C. […] Five different concentrations of peptides were injected at the flow rate of 30 μL/min, and their kinetic constants were determined. The binding kinetic was quantified by single cycle kinetic method. Finally, the binding sensorgrams was analyzed by Biacore evaluation software, and the standard 1:1 model was used for fitting. […]

BAM complex = test system: T1, BAM complex; assay: SPR binding kinetics to BAM complex; set-up: species or system E. coli; details: Biacore T200, 25 °C, multi-cycle kinetics, 1:1 model
T1 construct: made in house; host or cells: E. coli BL21(DE3), strain obtained from Xinmiao Fu, Fujian Normal University
T1 sequence (P0A903 25-344): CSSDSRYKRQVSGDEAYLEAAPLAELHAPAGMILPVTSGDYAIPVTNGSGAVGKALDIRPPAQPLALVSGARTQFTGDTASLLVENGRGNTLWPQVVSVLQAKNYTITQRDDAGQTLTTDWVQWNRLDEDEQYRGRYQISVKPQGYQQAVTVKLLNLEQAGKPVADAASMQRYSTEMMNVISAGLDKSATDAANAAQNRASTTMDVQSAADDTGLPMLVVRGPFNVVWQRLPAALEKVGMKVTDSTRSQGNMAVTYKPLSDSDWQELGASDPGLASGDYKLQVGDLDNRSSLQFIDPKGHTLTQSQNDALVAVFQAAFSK
T1 sequence (P0AC02 20-245, further chain): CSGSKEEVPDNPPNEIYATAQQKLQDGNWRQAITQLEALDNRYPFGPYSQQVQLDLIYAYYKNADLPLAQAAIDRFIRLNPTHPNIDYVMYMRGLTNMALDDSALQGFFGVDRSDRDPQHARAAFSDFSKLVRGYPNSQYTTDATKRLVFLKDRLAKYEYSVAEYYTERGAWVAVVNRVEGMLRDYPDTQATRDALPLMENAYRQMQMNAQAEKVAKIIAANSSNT
T1 sequence (P0A937 20-113, further chain): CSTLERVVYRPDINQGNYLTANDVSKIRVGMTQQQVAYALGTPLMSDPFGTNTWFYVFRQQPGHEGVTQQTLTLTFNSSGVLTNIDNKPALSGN
T1 sequence (P77774 20-392, further chain): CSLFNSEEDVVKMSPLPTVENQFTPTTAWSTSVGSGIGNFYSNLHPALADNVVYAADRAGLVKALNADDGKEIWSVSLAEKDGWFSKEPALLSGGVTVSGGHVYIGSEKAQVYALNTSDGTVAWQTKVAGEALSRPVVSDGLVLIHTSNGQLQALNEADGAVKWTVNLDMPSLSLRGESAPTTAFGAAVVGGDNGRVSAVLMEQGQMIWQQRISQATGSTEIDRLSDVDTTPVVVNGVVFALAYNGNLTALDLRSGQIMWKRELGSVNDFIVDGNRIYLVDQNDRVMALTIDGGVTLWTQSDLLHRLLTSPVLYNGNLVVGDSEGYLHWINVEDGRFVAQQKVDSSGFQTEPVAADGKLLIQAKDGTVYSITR
Protocol: Expression and purification of the BAM complex
The E. coli BL21(DE3) cells containing all five Bam proteins (BamA, B, C, D, and E) was obtained from Xinmiao Fu of Fujian Normal University and used for expression and purification.
The BL21(DE3) cells plated onto LB-ampicillin agar plates and incubated overnight at 37 °C. A 20 mL culture incubated overnight at 37°C was prepared from a single colony in LB medium supplemented with 100 mg/L of ampicillin. The strain was inoculated into fresh LB liquid medium according to the inoculation ratio of 1:100 and incubated at 37 ℃ for about 4 hours until the OD600 reached about 1.0. The temperature of the incubator was set to 20 ℃ and then cultured for 1 hour, and 200 uM IPTG was added to induce overnight. First of all, the induced cells were collected by freezing centrifuge 3000 rpm for 30 min, and the collected cells were resuspended with Buffer 1 (20 mM Tris-HCl, pH 8.0, 150 mM NaCl), and then crushed low temperature and pressure with a high pressure crusher. The broken cells were centrifuged 1 hour at 4 °C for18000 rpm by high speed centrifuge. After centrifugation at 4 °C 18000 rpm for 1 hour, and the supernatant was discarded and the cell membrane was collected. The collected cell membranes were resuscitated with Buffer 2 (20 mM Tris-HCl, pH 8.0, 300 mM NaCl, 1% DDM) and then dissolved at 4 °C for 2 hours. After dissolving the membrane, the supernatant was collected by high speed centrifuge at 18,000 rpm. The 20 mM imidazole was added to the supernatant and incubated with a 2 mL Ni-NTA sefinoseTM resin column for 1 hour. After incubation, 10 column volumes were washed with Buffer 3 (20 mM Tris-HCl, pH 8.0, 300 mM NaCl, 0.025%DDM) containing 30 mM and 50 mM imidazole respectively. Then, the protein was eluted with Buffer 3 containing 200 mM imidazole, and the eluted protein was collected. Finally, using the 20-fold molar excess of EZ-LinkTM Sulfo-NHS-LC-LC-Biotin for BAM complex, and incubate reaction on ice for 2 hours. After the protein labeling is completed, dialysis is used to purify the labeled protein to remove the remaining unreacted and hydrolyzed biotin reagents. […]
The mobile phase was 0.1% TFA aqueous solution / acetonitrile containing 0.1%
TFA. The purified macrocyclic peptides and fluorinated macrocyclic peptides were confirmed by electrospray ionization mass spectrometry (ESI-MS).
Binding kinetics analysis by SPR
The binding kinetics between the selected peptides and EphA2 were tested by SPR using a Biacore T200 instrument (GE Healthcare) at 25 °C. In this study, the running buffer was HBS-EP+ buffer (10 mM HEPES-KOH (pH 7.4), 150 mM NaCl, 50 μM EDTA, 0.05% Tween 20) containing 0.1% DMSO. Biotin capture kit (GE Healthcare) was used to fix human EphA2 on the surface of Biacore CAP chip with a density of 1050 RU. Five different concentrations of peptides were injected at the flow rate of 30 μL/min, and their kinetic constants were determined. The binding kinetic was quantified by single cycle kinetic method. Finally, the binding sensorgrams was analyzed by Biacore evaluation software, and the standard 1:1 model was used for fitting.
The binding kinetics between the selected peptides and BAM complex were tested by SPR using […]
a Biacore T200 instrument (GE Healthcare) at 25 °C. In this study, the running buffer was HBS-EP+ […]
0.1% DMSO. The Series S Sensor Chip CM5 was used to fix BAM complex on the surface of Biacore CM5 chip with a density of 9500 RU. The binding mode was multi-cycle kinetics (one sample concentration one cycle). Finally, the binding sensorgrams was analyzed by Biacore evaluation software, and the standard 1:1 model was used for fitting.
Preliminary evaluation of the antibacterial activity of macrocyclic peptides against E. coli […]
Remove the previously preserved E. coli W3110 cells from the -80 °C refrigerator, scrape a little, inoculate it into 1 mL LB liquid medium, and culture overnight in 37°C shaker. The strain was […]

Kd (human EphA2) [nM]	Molecule	ka for BAM complex (BAM complex; CM5 chip)	Kd (BAM complex; HBS-EP+ buffer pH 7.4 with 0.1% DMSO, BAM complex on CM5 chip (9500 RU)) [nM]
0.29	Ep-F2-M2: variant of Ep-F2 measured by SPR (Fig. S4) to examine the role of fluorination (FHPLYNFGCWTKSG; Parent Ep-F2 is printed as Ac-(4-F-DPhe)HPLYN(2F-LPhe)GCWTKSG-NH2)		
9.9	CC[C@H](C)[C@@H]1NC(=O)[C@@H](Cc2ccc(F)cc2)NC(=O)CSC[C@@H](C(=O)NCC(N)=O)NC(=O)[C@H](Cc2ccc(O)cc2)NC(=O)[C@H](CCCNC(=N)N)NC(=O)[C@H](CCC(N)=O)NC(=O)[C@H]([C@@H](C)O)NC(=O)[C@H]([C@@H](C)O)NC(=O)[C@H](Cc2ccc(F)c(F)c2)NC(=O)[C@H](CCCCN)NC(=O)[C@H](CC(C)C)NC(=O)[C@H](C)NC(=O)[C@H](Cc2ccc(O)cc2)NC(=O)[C@H](Cc2c[nH]c3ccccc23)NC1=O [Ep-F1] ({CH2CO}-[dPhe(4-F)]IWYALK[Phe(3,4-F2)]TTQRYCG-NH2; thioether N-14)		
	CC[C@H](C)[C@@H]1NC(=O)[C@H](CC(C)C)NC(=O)[C@@H](Cc2ccc(O)cc2)NC(=O)CSC[C@@H](C(=O)NCC(N)=O)NC(=O)[C@H](C(C)C)NC(=O)[C@H](CCCNC(=N)N)NC(=O)[C@H](Cc2ccccc2)NC(=O)[C@@H]2CCCN2C(=O)[C@H](Cc2c[nH]cn2)NC(=O)[C@H](CO)NC(=O)[C@H](CCCNC(=N)N)NC(=O)[C@H](CO)NC(=O)[C@H](Cc2ccc(O)cc2)NC(=O)[C@H](Cc2c[nH]c3ccccc23)NC1=O [BAM-D1] ({CH2CO}-[dY]LIWYSRSHPFRVCG-NH2; thioether N-14)	0.43 ×10 4 M-1s-1	763
0.25	CC(C)C[C@@H]1NC(=O)[C@@H]2CCCN2C(=O)[C@H](Cc2c[nH]cn2)NC(=O)[C@@H](Cc2ccc(F)cc2)NC(=O)CSC[C@@H](C(=O)N[C@@H](Cc2c[nH]c3ccccc23)C(=O)N[C@H](C(=O)N[C@@H](CCCCN)C(=O)N[C@@H](CO)C(=O)NCC(N)=O)[C@@H](C)O)NC(=O)CNC(=O)[C@H](Cc2ccc(F)c(F)c2)NC(=O)[C@H](CC(N)=O)NC(=O)[C@H](Cc2ccc(O)cc2)NC1=O [Ep-F2] ({CH2CO}-[dPhe(4-F)]HPLYN[Phe(3,4-F2)]GCWTKSG-NH2; thioether N-9)		
